Source: US20240115572A1, “METHODS FOR TREATING GLIOBLASTOMAS WITH SEPIAPTERIN” (priority 2021, published 2024)

Columns and labels:
[1] = system: Orthotopic GL261 tumors; experiment: Survival of mice with orthotopic GL261 tumors, temozolomide with or without sepiapterin; assay type: in vivo, mouse; conditions: 10 mg/kg SP orally from day 7 until end of study + 60 mg/kg TMZ for 5 days
Procedure: Orthotopic GL261 tumors were established on Day 0. Starting on Day 7 mice were treated with 60 mg/kg temozolomide (TMZ) for 5 days+/−10 mg/kg SP given orally from day 7 until the end of the study. […] Future animal studies will combine with fractionated radiotherapy.

[2] = system: adult female C57BL/6J mice; experiment: Novel object recognition (NOR) test after brain irradiation; assay type: in vivo, mouse
Excerpt: The novel object recognition test is a behavioral test in which a mouse is allowed to explore two similar objects during the first (training) session, and then after a certain length of time, one of the two training objects is replaced by a new object during a later (test) session. Because mice have an innate preference for novelty, if the mouse recognizes the familiar object, it will spend most of its time at the novel object. The amount of time taken to explore the new object provides a measure of recognition memory. 24 adult female C57BL/6J mice were treated as follows: (1) 8 mice were irradiated (IR) with 10 Gy total dose, divided into three fractions with a “rest” day in between fractions, covering about a 1 mm square over the center of the head; (2) 8 mice were similarly irradiated, and also treated with 10 mg/kg/day sepiapterin (SP), administered as oral gavage, starting on day 1 of IR to 6 days beyond last radiation fraction (i.e. 11 days total); (3) 8 mice were untreated naïve. 1 month following treatment, mice were tested in the novel object recognition (NOR) task with an hour inter-trial interval (ITI) to assess hippocampal mediated memory (i.e. the test occurred one hour after training). In both training and test phases, time investigating objects was measured for 5 minutes. Two independent observers were used to evaluate. The Discrimination Index=(novel−familiar)/(novel+familiar).

[3] = system: Orthotopic glioblastoma tumors, nude (U87) mouse model; experiment: Survival of nude mice with orthotopic U87 glioblastoma tumors, sepiapterin plus radiation; assay type: in vivo
Procedure: Orthotopic glioblastoma tumors were established in nude (U87) and syngeneic (GL261) mouse models on Day 0 (N=13/group). Starting on Day 6 in the U87 mouse model, sepiapterin (SP) was orally administered for either 6 days (10 mg/kg sepiapterin) or daily (1 mg/kg sepiapterin) until end of experiment (60 days). Starting on Day 6 in the GL261 mouse model, SP was orally administered daily (10 mg/kg) until the end of experiment (60 days). Radiation (IR) (5 fxs of 2 Gy) with 3D treatment planning and delivery was started on Day 13, ending on Day 17.

C[C@H](O)C(=O)C1=Nc2c(nc(N)[nH]c2=O)NC1 [sepiapterin, (S)-2-amino-6-(2-hydroxypropanoyl)-7,8-dihydropteridin-4(3H)-one]
Survival vs TMZ alone [1]: improved survival
Discrimination Index compared with irradiated-only group ([2]; 10 Gy IR in three fractions + 10 mg/kg/day oral gavage for 11 days, NOR 1 month after treatment, 1 h ITI): increased
NOR Discrimination Index, Mean ([2]; IR 10 Gy + 10 mg/kg/day sepiapterin, N=8, 1 month after treatment, (novel−familiar)/(novel+familiar)): 0.262
Diff of Means of Discrimination Index, IR + drug vs. IR ([2]; Tukey test, P 0.331, P < 0.050: No): 0.135
Diff of Means of Discrimination Index, Naïve vs. IR + drug ([2]; Tukey test, P 0.475, P < 0.050: No): 0.110
Survival vs control group ([3]; 1 mg/kg oral continuously (daily from Day 6 to day 60) + IR, vs control): significantly different
Survival vs all other groups (Control, IR alone, and 10 mg/kg for 6d) ([3]; 1 mg/kg oral continuously + IR): significantly different from all other groups
Survival vs control group ([3]; 10 mg/kg oral for 6d from Day 6 + IR (5 fxs of 2 Gy, Day 13-17), vs control (no IR or SP)): significantly different
Survival vs IR alone group ([3]; 10 mg/kg oral for 6d from Day 6 + IR, vs IR alone): did not achieve statistical significance
